The test concerns the target T1, PSMA (Homo sapiens, UniProt Q04609).
T1 construct: endogenous in cells; host or cells: LNCaP cells
The experiment in a line: In vitro PSMA competitive binding assay, LNCaP cells, [18F]DCFPyL radioligand. The following applies: [18F]DCFPyL 0.1 nM, read-out: PSMA binding affinity (Ki). How it is done: Inhibition constants (Ki) to PSMA were measured by in vitro competition binding assays using [^18F]DCFPyL as the radioligand. LNCaP cells which were plated onto a 24-well poly-D-lysine coated plate for 48 h (400,000/well). Growth medium was removed and replaced with HEPES buffered saline (50 mM HEPES, pH 7.5, 0.9% sodium chloride). After 1 h, [^18F]DCFPyL (0.1 nM) was added to each well (in triplicate) containing varied concentrations ([…]) of tested compounds The assay mixtures were incubated for 1 h at 37° C. with gentle agitation followed by two washes with cold HEPES buffered saline. A trypsin solution (0.25%, 400 μL) was then added to each well to harvest the cells. Radioactivity was measured by gamma counting and Ki values calculated using the ‘one site—fit Ki’ built-in model in Prism 8 (GraphPad).

*1 amine or outer side, *2 acyl side, *3 side chain or, on linkers, in order; H or OH if unused. Where a SMILES comes first, the peptide text is derived from it. [ ]: non-standard residue; d: D form. The star is where a group is joined. AadUreaLys(Nε) = O=C(O)CCC[C@H](NC(=O)N[C@@H](CCCCN*)C(=O)O)C(=O)O; Butanoyl(4-(4-NO2Ph)) = O=C(CCCc1ccc([N+](=O)[O-])cc1)*; DOTA = O=C(O)CN1CCN(CC(=O)O)CCN(CC(=O)*)CCN(CC(=O)O)CC1; Ala(9-anthryl) = N[C@@H](Cc1c2ccccc2cc2ccccc12)C(=O)O; X3 = O=C(C1CCC(N[*:1])CC1)[*:2]

Usually Ki stands for the equilibrium dissociation constant of an inhibitor or competing ligand from its target.

T1 sequence (Q04609 whole entry): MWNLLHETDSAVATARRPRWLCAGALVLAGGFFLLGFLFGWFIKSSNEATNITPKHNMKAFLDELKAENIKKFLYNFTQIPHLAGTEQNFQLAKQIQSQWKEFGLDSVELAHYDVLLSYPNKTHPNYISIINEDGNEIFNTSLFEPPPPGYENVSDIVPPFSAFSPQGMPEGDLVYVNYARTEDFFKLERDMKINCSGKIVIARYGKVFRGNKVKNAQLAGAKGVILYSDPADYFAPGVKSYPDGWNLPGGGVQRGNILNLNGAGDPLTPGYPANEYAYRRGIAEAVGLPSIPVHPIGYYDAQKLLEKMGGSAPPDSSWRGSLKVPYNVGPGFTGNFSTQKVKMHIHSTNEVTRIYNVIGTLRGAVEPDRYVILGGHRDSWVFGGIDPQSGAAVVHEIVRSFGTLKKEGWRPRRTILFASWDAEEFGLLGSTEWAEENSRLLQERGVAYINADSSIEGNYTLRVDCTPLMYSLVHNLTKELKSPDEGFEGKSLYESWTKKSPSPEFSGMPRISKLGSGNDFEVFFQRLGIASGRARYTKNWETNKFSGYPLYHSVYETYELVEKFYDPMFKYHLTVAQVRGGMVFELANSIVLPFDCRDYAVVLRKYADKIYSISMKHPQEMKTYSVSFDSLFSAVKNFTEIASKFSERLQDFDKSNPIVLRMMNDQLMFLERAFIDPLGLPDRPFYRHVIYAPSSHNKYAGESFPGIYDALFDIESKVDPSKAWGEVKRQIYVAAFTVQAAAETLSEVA

`COc1ccc(CCCC(=O)NCC(=O)N[C@@H](CCCCNC(=O)CN2CCN(CC(=O)O)CCN(CC(=O)O)CCN(CC(=O)O)CC2)CC(=O)NCC2CCC(C(=O)N[C@@H](Cc3c4ccccc4cc4ccccc34)C(=O)NCCCC[C@H](NC(=O)N[C@@H](CCCC(=O)O)C(=O)O)C(=O)O)CC2)cc1` (some centres unmarked) [CCZ02015]: the Ki was 1.09 ± 0.3 nM.
In the case of `O=C(O)CCC[C@H](NC(=O)N[C@@H](CCCCNC(=O)[C@H](Cc1c2ccccc2cc2ccccc12)NC(=O)C1CCC(NC(=O)CNC(=O)[C@H](CCCCNC(=O)CN2CCN(CC(=O)O)CCN(CC(=O)O)CCN(CC(=O)O)CC2)NC(=O)CNC(=O)CCCc2ccc([N+](=O)[O-])cc2)CC1)C(=O)O)C(=O)O` (some centres unmarked) [CCZ02021] ({Butanoyl(4-(4-NO2Ph))}-GK(DOTA)G[X3][Ala(9-anthryl)]-{AadUreaLys(Nε)}), the Ki is 5.71 nM.

The values above are taken from patent US20250186627A1, “RADIOLABELED COMPOUNDS TARGETING THE PROSTATE-SPECIFIC MEMBRANE ANTIGEN” (PROVINCIAL HEALTH SERVICES AUTHORITY, priority 2022, published 2025).
